Experimental data: patent publication US6949542B2, “Dihydro-benzo[b][1,4]diazepin-2-one derivatives” (Hoffman-La Roche Inc., priority 2002, dated 2005)

CCOc1cc2c(cc1C(F)(F)F)NC(=O)CC(c1cccc(-c3ccnc(CC)c3)c1)=N2 [Example 159, 4-[3-(2-Ethyl-pyridin-4-yl)-phenyl]-7-ethoxy-8-trifluoromethyl-1,3-dihydro-benzo[b][1,4]diazepin-2-one]
melting point: 244 °C

CCOc1cc2c(cc1C(F)(F)F)NC(=O)CC(c1cccc(-c3ccccn3)c1)=N2 [Example 43, 7-Ethoxy-4-(3-pyridin-2-yl-phenyl)-8-trifluoromethyl-1,3-dihydro-benzo[b][1,4]diazepin-2-one]
melting point: 229 °C

Cc1cc2c(cc1C(F)(F)F)N=C(c1cccc(-c3cncnc3)c1)CC(=O)N2 [Example 106, 8-Methyl-4-(3-pyrimidin-5-yl-phenyl)-7-trifluoromethyl-1,3-dihydro-benzo[b][1,4]diazepin-2-one]
melting point: 238 °C

CC(C)CN(C)c1cc2c(cc1C(F)(F)F)NC(=O)CC(c1cccc(-c3ccnc(CO)c3)c1)=N2 [Example 366, 4-[3-(2-Hydroxymethyl-pyridin-4-yl)-phenyl]-7-(isobutyl-methyl-amino)-8-trifluoromethyl-1,3-dihydro-benzo[b][1,4]diazepin-2-one]
melting point: 130 °C

Cc1nccc(-c2cccc(C3=Nc4ccc(C(F)(F)F)cc4NC(=O)C3)c2)n1 [Example 304, 4-[3-(2-Methyl-pyrimidin-4-yl)-phenyl]-8-trifluoromethyl-1,3-dihydro-benzo[b][1,4]diazepin-2-one]
melting point: 212 to 226 °C

Cc1cc2c(cc1Cl)NC(=O)CC(c1cccc(-c3ccnc(CN(C)CC(C)C)c3)c1)=N2 [Example 396, 8-Chloro-4-(3-{2-[(isobutyl-methyl-amino)-methyl]-pyridin-4-yl}-phenyl)-7-methyl-1,3-dihydro-benzo[b][1,4]diazepin-2-one]
melting point: 151 °C

Cc1ccncc1-c1cccc(C2=Nc3cc(C)c(C(F)(F)F)cc3NC(=O)C2)c1 [Example 233, 7-Methyl-4-[3-(4-methyl-pyridin-3-yl)-phenyl]-8-trifluoromethyl-1,3-dihydro-benzo[b][1,4]diazepin-2-one]
melting point: 205 to 207 °C

Cc1cc(-c2cccc(C3=Nc4cc(C)c(Cl)cc4NC(=O)C3)c2)nc(N(C)C)n1 [Example 321, 8-Chloro-4-[3-(2-dimethylamino-6-methyl-pyrimidin-4-yl)-phenyl]-7-methyl-1,3-dihydro-benzo[b][1,4]diazepin-2-one]
melting point: 248 to 250 °C

O=C1CC(c2cccc(-c3cccnc3)c2)=Nc2cc(OCC3CC3)c(C(F)(F)F)cc2N1 [Example 194, 7-Cyclopropylmethoxy-4-(3-pyridin-3-yl-phenyl)-8-trifluoromethyl-1,3-dihydro-benzo[b][1,4]diazepin-2-one]
melting point: 197 °C

O=C1CC(c2cccc(-c3cccnc3C3CC3)c2)=Nc2ccc(C(F)(F)F)cc2N1 [Example 220, 4-[3-(2-Cyclopropyl-pyridin-3-yl)-phenyl]-8-trifluoromethyl-1,3-dihydro-benzo[b][1,4]diazepin-2-one]
melting point: 171 to 173 °C

Cc1cc(-c2cccc(C3=Nc4cc(Cl)c(Cl)cc4NC(=O)C3)c2)cc(CO)n1 [Example 404, 7,8-Dichloro-4-[3-(2-hydroxymethyl-6-methyl-pyridin-4-yl)-phenyl]-1,3-dihydro-benzo[b][1,4]diazepin-2-one]
melting point: 234 °C

CC(C)N(C)c1cc2c(cc1Cl)NC(=O)CC(c1cccc(-c3ccnc(CO)c3)c1)=N2 [Example 367, 8-Chloro-4-[3-(2-hydroxymethyl-pyridin-4-yl)-phenyl]-7-(isopropyl-methyl-amino)-1,3-dihydro-benzo[b][1,4]diazepin-2-one]
melting point: 143 °C

CCc1ccc(-c2cccc(C3=Nc4cc(C)c(Cl)cc4NC(=O)C3)c2)cn1 [Example 189, 8-Chloro-4-[3-(6-ethyl-pyridin-3-yl)-phenyl]-7-methyl-1,3-dihydro-benzo[b][1,4]diazepin-2-one]
melting point: 182 to 185 °C

Cc1cc(-c2cccc(C3=Nc4cc(OCC(F)(F)F)c(C(F)(F)F)cc4NC(=O)C3)c2)cc(C2CC2)n1 [Example 259, 4-[3-(2-Cyclopropyl-6-methyl-pyridin-4-yl)-phenyl]-7-(2,2,2-trifluoro-ethoxy)-8-trifluoromethyl-1,3-dihydro-benzo[b][1,4]diazepin-2-one]
melting point: 200 °C

CNc1cc(-c2cccc(C3=Nc4cc(C)c(Cl)cc4NC(=O)C3)c2)ncn1 [Example 331, 8-Chloro-7-methyl-4-[3-(6-methylamino-pyrimidin-4-yl)-phenyl]-1,3-dihydro-benzo[b][1,4]diazepin-2-one]
melting point: 240 to 243 °C

O=C1CC(c2cccc(-c3cccnc3)c2)=Nc2cc(N3CCCC3)c(C(F)(F)F)cc2N1 [Example 187, 4-(3-Pyridin-3-yl-phenyl)-7-pyrrolidin-1-yl-8-trifluoromethyl-1,3-dihydro-benzo[b][1,4]diazepin-2-one]
melting point: 219 to 221 °C

O=C1CC(c2cccc(-c3ncccn3)c2)=Nc2ccc(C(F)(F)F)cc2N1 [Example 338, 4-(3-Pyrimidin-2-yl-phenyl)-8-trifluoromethyl-1,3-dihydro-benzo[b][1,4]diazepin-2-one]
melting point: 236 to 237 °C

Cc1cc(-c2cccc(C3=Nc4cc(N(C)CC(C)C)c(C(F)(F)F)cc4NC(=O)C3)c2)ccn1 [Example 362, 7-(Isobutyl-methyl-amino)-4-[3-(2-methyl-pyridin-4-yl)-phenyl]-8-trifluoromethyl-1,3-dihydro-benzo[b][1,4]diazepin-2-one]
melting point: 189 °C

Cc1ncccc1-c1cccc(C2=Nc3ccc(-n4cccc4)cc3NC(=O)C2)c1 [Example 289, 4-[3-(2-Methyl-pyridin-3-yl)-phenyl]-8-pyrrol-1-yl-1,3-dihydro-benzo[b][1,4]diazepin-2-one]
melting point: 215 to 216 °C

O=C1CC(c2cccc(-c3cncnc3)c2)=Nc2ccc(Cl)cc2N1 [Example 94, 8-Chloro-4-(3-pyrimidin-5-yl-phenyl)-1,3-dihydro-benzo[b][1,4]diazepin-2-one]
melting point: 234 °C

Cc1cc(-c2cccc(C3=Nc4cc(C)c(Cl)cc4NC(=O)C3)c2)cc(CO)n1 [Example 401, 8-Chloro-4-[3-(2-hydroxymethyl-6-methyl-pyridin-4-yl)-phenyl]-7-methyl-1,3-dihydro-benzo[b][1,4]diazepin-2-one]
melting point: 202 °C

CCCc1cc2c(cc1C(F)(F)F)NC(=O)CC(c1cccc(-c3cc(C)nc(C)c3)c1)=N2 [Example 229, 4-[3-(2,6-Dimethyl-pyridin-4-yl)-phenyl]-7-propyl-8-trifluoromethyl-1,3-dihydro-benzo[b][1,4]diazepin-2-one]
melting point: 216 °C

Cc1cc(-c2cc(C3=Nc4cc(C)c(Cl)cc4NC(=O)C3)ccn2)ccn1 [Example 295, 8-Chloro-7-methyl-4-(2′-methyl-[2,4′]bipyridinyl-4-yl)-1,3-dihydro-benzo[b][1,4]diazepin-2-one]
melting point: 225 to 227 °C

N#Cc1ccc(-c2cccc(C3=Nc4ccc(C(F)(F)F)cc4NC(=O)C3)c2)cn1 [Example 204, 5-[3-(4-Oxo-7-trifluoromethyl-4,5-dihydro-3H-benzo[b][1,4]diazepin-2-yl)-phenyl]-pyridine-2-carbonitrile]
melting point: 234 to 237 °C
